Test [1] deals with HepG2. In words: Cytotoxicity against human HepG2 cells assessed as reduction in cell viability. It is filed as functional, cell-based.
In another test the test system is HeLa. Description: Cytotoxicity against human HeLa cells assessed as reduction in cell viability. Format: functional, cell-based.
Test [2] deals with HepG2. In words: Cytotoxicity against human HepG2 cells by SRB assay. Format: functional. (In SRB staining, fixed cells bind dye roughly in proportion to their protein.)
For test [3], the system named is HepG2. Description: Cytotoxicity against human HepG2 cells. It is filed as functional, cell-based.
In test [4] the test system is Rattus norvegicus. Description: Antiinflammatory activity in carrageenan induced rat paw edema model relative to indomethacin. It is filed as functional. Background: The carrageenan paw model is a standard test of acute inflammation.
In the next test the test system is DU-145. Description: Cytotoxicity against human DU-145 cells by SRB assay. It is filed as functional.
A further test deals with Tubulin (Homo sapiens) (UniProt P68371+Q9H4B7+P0DPH7+P68366+Q13509+Q71U36+P04350+Q3ZCM7+P07437+P68363+Q9BQE3+Q6PEY2+Q13885+Q9BVA1+Q9BUF5). In words: Inhibition of tubulin polymerization (unknown origin) by fluorescence assay relative to control. Format: protein-complex assay. The settings on record: concentration not given here.
Another test concerns Huh-7. Description: Cytotoxicity against human Huh-7 cells. Format: functional, cell-based.
For another test, the system named is Plasmodium berghei. In words: Antimalarial activity against Plasmodium berghei infected in mouse assessed as suppression percentage at 48.46 umol/kg administered daily relative to control. It is filed as functional. Particulars: dose 48.46 µmol/kg.
The subject of the next test is A549. In words: Cytotoxicity against human A549 cells assessed as reduction in cell viability. Format: functional, cell-based.
The test system of test [5] is Rattus norvegicus. Description: Antiinflammatory activity in carrageenan induced rat paw edema model assessed inhibition of TNF-alpha level. Format: functional, organism-based.
The next test has as its system Mus musculus. In words: Anticonvulsant activity in BALB/c mouse assessed as increase in survival rate at 60 mg/kg, ip by PTZ method relative to control. Format: functional.
The subject of a further test is Rhizopus arrhizus. In words: Antifungal activity against Rhizopus oryzae. Format: functional.
Test [6] has as its system Staphylococcus aureus. Description: Antibacterial activity against Staphylococcus aureus. Format: functional.
The test system of a further test is MCF7. Description: cells. Particulars: Homo sapiens.
The subject of test [7] is RAW264.7. Description: Cytotoxicity against mouse RAW264.7 cells relative to control. Format: functional.
In test [8] the test system is RAW264.7. In words: Antiinflammatory activity in LPS-induced mouse RAW264.7 cells assessed as inhibition of LPS induced NO production. It is filed as functional, cell-based.
In a further test the test system is Plasmodium falciparum. In words: Antimalarial activity against chloroquine-sensitive Plasmodium falciparum 3D7. Format: functional, organism-based.
In another test the test system is Escherichia coli. Description: microbe, parasite or virus in culture.
Another test has as its system Pseudomonas aeruginosa. Description: microbe, parasite or virus in culture.
Another test deals with Aspergillus clavatus. Description: Antifungal activity against Aspergillus clavatus. Format: functional.
Test [9] has as its system Staphylococcus aureus. Description: Antibacterial activity against Staphylococcus aureus assessed as inhibition of microbial growth. It is filed as functional.
The next test deals with Aspergillus niger. Description: Antifungal activity against Aspergillus niger. It is filed as functional.
The test system of a further test is Streptococcus pyogenes. In words: Antibacterial activity against Streptococcus pyogenes assessed as inhibition of microbial growth. It is filed as functional.
In another test the test system is Candida albicans. In words: Antifungal activity against Candida albicans. It is filed as functional.

What is called IC50 is the concentration that gives 50% inhibition. Usually GI50 stands for the concentration at which growth is held to half of that of the control. A higher GI50 goes with less potent growth inhibition. The term inhibition denotes the relative decrease from the control value, in per cent.

In brackets after ≈: the same amount, converted by molar mass. Bounds are passed on as bounds.

For `COc1cc(C2CC(c3ccc(F)cc3)=NN2C(N)=S)cc(OC)c1OC` (stereo not drawn), the IC50 in the test on HepG2 [1] turned out to be 6.78 µM; in the test with HeLa it was 7.63 µM. For `COc1ccc(C2CC(c3cc(OC)c(OC)c(OC)c3)=NN2C(C)=O)cc1OCc1cn(Cc2ccc(F)cc2)nn1` (stereo not drawn), the GI50 in the test with HepG2 [2] came to 6.7 µM. On to `CN(C)c1ccc(C2CC(c3c4ccccc4cc4ccccc34)=NN2c2nc(-c3ccc(F)cc3)c(C#N)c(=O)[nH]2)cc1` (stereo not drawn), for which half-maximal inhibition with HepG2 [3] (IC50) required 4.21 µg/mL (≈ 7.28 µM). Turning to `Cc1ccc(/C=C/C2=NN(C(N)=O)C(c3ccc(C)s3)C2)s1` (stereo not drawn), the Activity in the test with Rattus norvegicus [4] is 103%.

In the test with DU-145, `COc1ccc(/C=C/C(=O)c2cc(OC)c(OC)c(OC)c2)cc1OCc1cn(Cc2ccc(N)cc2)nn1` registered a GI50 of 1.5 µM. Besides, the inhibition against Tubulin (Homo sapiens) was 36%. In the test with Huh-7, `COc1cc(C2CC(c3c4ccccc4cc4ccccc34)=NN2c2nc(-c3ccc(F)cc3)c(C#N)c(=O)[nH]2)cc(OC)c1OC` (stereo not drawn) displayed an IC50 of 4.78 µg/mL (≈ 7.64 µM). With `CCC(=O)N1N=C(c2ccccc2)CC1c1cn(-c2ccccc2)nc1-c1ccc(C)cc1` (stereo not drawn), in the test on Plasmodium berghei, the Activity came out at 45.52%. As to `COc1cc(C2CC(c3ccc(Br)cc3)=NN2C(N)=S)cc(Br)c1O` (stereo not drawn), the IC50 in the test on A549 was 51 µM. For `Cc1ccc(/C=C/C2=NN(c3ccccc3)C(c3ccc(C)s3)C2)s1` (stereo not drawn), half-maximal inhibition in the test on Rattus norvegicus [5] (IC50) required 0.0017 µM. In the test on Rattus norvegicus [5], `COc1cc(/C=C/C(=O)CC(=O)/C=C/c2ccc(O)c(OC)c2)ccc1O` [CURCUMIN] yielded an IC50 of 0.0534 µM. For `O=C(Nc1ccc(Cl)cc1)N1N=C(c2ccc(Cl)s2)CC1c1c(Cl)cccc1Cl` (stereo not drawn), the survival at 60 mg/kg with Mus musculus came to 100%. Regarding `COc1ccc(C2CC(c3cc4ccccc4oc3=O)=NN2c2ccccc2)cc1OC` (stereo not drawn), the MIC in the test with Rhizopus arrhizus and against Staphylococcus aureus [6] was 12.5 µg/mL (≈ 29.3 µM) in each case. For the molecule `COc1cc(C2CC(c3ccc(Cl)cc3)=NN2C(N)=S)cc(OC)c1OC` (stereo not drawn), the IC50 was 16 µM in the test with HepG2 [1] and 9.37 µM with HeLa. In the case of `CNC(=S)N1N=C(c2nnn(-c3ccc(-n4nnc(C5=NN(C(=S)NC)C(c6ccccc6)C5)c4C)cc3)c2C)CC1c1ccccc1` (stereo not drawn), 32.3 µg/mL (≈ 47.8 µM) corresponded to half-maximal inhibition in the test with MCF7 (IC50). Turning to `C[C@]12CC[C@H]3[C@@H](CC=C4C[C@@H](O)CC[C@@]43C)[C@@H]1CC[C@@H]2C1=NN(C(N)=S)C(c2cccc(F)c2)C1` (stereo partly drawn), the Activity with RAW264.7 [7] is listed as >90%. In addition, the half-inhibitory concentration (IC50) with RAW264.7 [8] came out at 1.02 µM. Take `COc1cc(C2CC(c3cc4ccccc4oc3=O)=NN2C(=O)c2ccncc2)cc(OC)c1OC` (stereo not drawn): the IC50 in the test with Plasmodium falciparum amounted to 9.68 µg/mL (≈ 19.9 µM).

As for `O=C(c1ccncc1)N1N=C(c2ccc(Cl)cc2)CC1c1cc2ccccc2nc1Cl` (stereo not drawn), the MIC in the test with Escherichia coli and in the test on Pseudomonas aeruginosa was 12.5 µg/mL (≈ 27.9 µM) each time.

On to `O=C(c1ccncc1)N1N=C(c2ccc(Cl)cc2Cl)CC1c1cc2ccccc2nc1Cl` (stereo not drawn), for which the MIC in the test on Aspergillus clavatus was determined as 50 µg/mL (≈ 104 µM); in the test on Staphylococcus aureus [9] it was 12.5 µg/mL; in the test with Aspergillus niger, 12.5 µg/mL (≈ 25.9 µM); in the test on Streptococcus pyogenes, 12.5 µg/mL; with Candida albicans, 12.5 µg/mL (≈ 25.9 µM).

Values taken from ChEMBL document CHEMBL5260848, “Recent advancements in the development of bioactive pyrazoline derivatives” (Eur J Med Chem, 2020).
